Legend:
[1] = biological target: T1, CRAF (Homo sapiens, UniProt P04049); assay: Phospho-S338 CRAF immunoblot in XPA-1 cells; type: cell-based; set-up: total CRAF and total MEK of lysates from XPA-1 cells treated with PD0325901, Sorafenib, L-779450, PLX4720, KG5 or KG1; endogenous in cells; host or cells: XPA-1
Protocol: (§1) FIGS. 6 and 7 illustrate immunoblot analysis of CRAF immunoprecipitated from XPA-1 cells treated with KG5 and KG38.
FIG. 13 illustrates immunoblot analysis of phospho-5338 CRAF, phospho-MEK, total CRAF and total MEK of lysates from XPA-1 cells treated with PD0325901, Sorafenib, L-779450, PLX4720, KG5 or KG1.
(§2) Immunoprecipitation and Immunoblot Analysis Cells were lysed in either NP40 lysis buffer (150 mM NaCl, 50 mM Tris Base pH 7.4, 1% NP40) or RIPA buffer (50 mM Tris pH 7.4, 100 mM NaCl, 0.1% SDS) supplemented with complete protease inhibitor mixture (Roche), 50 mM NaF and 1 mM Na3VO4 and centrifuged at 13,000×g for 10 min at 4° C. Protein concentration was determined by BCA assay. […] of protein were immunoprecipitated with […] of anti-Flag (Sigma), anti-CRAF (BD Pharmingen), anti-Plk1 (Abcam), anti-γ-Tubulin (sigma) or anti-cenpF (Santa Cruz) antibodies overnight at 4° C. followed by capture with 25 μl of protein A/G (Pierce). Beads were washed five times, eluted in boiling Laemmli buffer, resolved on 10% SDS-PAGE and immunoblotting was performed with anti-Plk1 antibody (Abcam), anti-CRAF antibody (BD Pharmingen), anti-Aurora A (Abcam), anti-phospho-S338 CRAF (Cell Signaling), anti-phospho-T210 Plk1 or anti-phospho-T288 Aurora A (Cell signaling) diluted 1:1000. For immunoblot analysis, […] of protein was boiled in […]
Target sequence in this assay (P04049 whole entry): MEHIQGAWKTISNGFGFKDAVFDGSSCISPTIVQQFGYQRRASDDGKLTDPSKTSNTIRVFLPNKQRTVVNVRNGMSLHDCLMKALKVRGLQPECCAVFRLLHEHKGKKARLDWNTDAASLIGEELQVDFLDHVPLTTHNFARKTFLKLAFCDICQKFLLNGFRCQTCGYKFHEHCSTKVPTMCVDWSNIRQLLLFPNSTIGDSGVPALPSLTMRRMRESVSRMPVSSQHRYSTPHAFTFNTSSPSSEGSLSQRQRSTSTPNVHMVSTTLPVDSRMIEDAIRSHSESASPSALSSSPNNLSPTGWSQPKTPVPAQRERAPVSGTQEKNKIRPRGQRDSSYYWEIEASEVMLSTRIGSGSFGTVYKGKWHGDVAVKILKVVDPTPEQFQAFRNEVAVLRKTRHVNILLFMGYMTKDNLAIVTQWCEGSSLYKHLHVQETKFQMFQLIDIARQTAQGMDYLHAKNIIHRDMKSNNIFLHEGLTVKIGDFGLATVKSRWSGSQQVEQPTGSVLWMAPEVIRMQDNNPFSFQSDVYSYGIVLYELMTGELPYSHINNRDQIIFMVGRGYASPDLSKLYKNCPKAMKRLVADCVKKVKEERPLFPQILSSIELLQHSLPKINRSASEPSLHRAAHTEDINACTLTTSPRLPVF

[2] = biological target: RAF dimerization (BRAF and CRAF) (Homo sapiens, UniProt P04049); assay: RAF dimerization, immunoblot of BRAF and CRAF immunoprecipitates from XPA-1 cells; type: cell-based; set-up: immunoblot analysis of BRAF and CRAF immunoprecipitates from XPA-1 cells; endogenous in cells; host or cells: XPA-1
RAF dimerization (BRAF and CRAF), sequence (P04049 whole entry): as above
Protocol: as §1
FIG. 14 illustrates immunoblot analysis of BRAF and CRAF immunoprecipitates from XPA-1 cells treated with PD0325901, Sorafenib, L-779450, PLX4720, KG5 or KG1.
as §2

[3] = tested on: human breast (MDA-MB-231) carcinoma cell line; assay: Cell viability assay in MDA-MB-231 cells; type: cell-based
[4] = tested on: human breast (T47D) carcinoma cell line; assay: Cell viability assay in T47D cells; type: cell-based
[5] = tested on: human lung (A549) carcinoma cell line; assay: Cell viability assay in A549 cells; type: cell-based
[6] = tested on: A549 cells; assay: Cell proliferation assay in A549 cells; type: cell-based, human
[7] = biological target: T1, CRAF; conditions: 293H cells overexpressing catC, indicated amounts for 1 h; cited from earlier work
Target sequence in this assay (P04049 305-648 limits assumed, species assumed): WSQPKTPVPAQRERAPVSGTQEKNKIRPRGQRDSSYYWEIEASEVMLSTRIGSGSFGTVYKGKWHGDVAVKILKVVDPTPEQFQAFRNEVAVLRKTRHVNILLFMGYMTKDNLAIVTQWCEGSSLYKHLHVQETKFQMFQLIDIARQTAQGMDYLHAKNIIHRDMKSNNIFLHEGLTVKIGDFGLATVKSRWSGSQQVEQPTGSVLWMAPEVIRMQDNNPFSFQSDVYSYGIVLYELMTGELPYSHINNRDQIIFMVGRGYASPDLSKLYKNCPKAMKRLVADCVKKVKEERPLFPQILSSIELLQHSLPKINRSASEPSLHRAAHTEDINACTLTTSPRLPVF

| serine 338 phosphorylation on CRAF [1] | RAF dimerization [2] | potency relative to KG5 (cell viability EC50s) ([3]; MDA-MB-231) | EC50 ([3]; MDA-MB-231 breast cancer cell viability assays) | potency relative to KG5 (cell viability EC50s) ([4]; T47D) | EC50 ([4]; T47D breast cancer cells) | potency relative to KG5 (cell viability EC50s) ([5]; A549) | EC50 ([5]; A549 lung cancer cells) | Compound | cell viability ([3]; MDA-MB-231) | cell viability ([4]; T47D) | cell viability ([5]; A549) | cell proliferation [6] | phosphorylation at S338 (pS338-CRAF immunoblot) [7] |
| --- | --- | --- | --- | --- | --- | --- | --- | --- | --- | --- | --- | --- | --- |
| prevent | prevent RAF dimerization | more potent than KG5 | approach picomolar (pM) EC50s | more potent than KG5 | approach picomolar (pM) EC50s | more potent than KG5 | approach picomolar (pM) EC50s | CSc1nc(N)cc(Oc2ccc(-c3cnc(Nc4cccc(C(F)(F)F)c4)[nH]3)cc2)n1 [K38-B] | decrease cell viability | decrease cell viability | decrease cell viability | – | – |
| – | – | – | – | – | – | – | – | CCCS(=O)(=O)Nc1ccc(F)c(C(=O)c2c[nH]c3ncc(Cl)cc23)c1F [PLX4720] | – | – | – | induce proliferation | steadily increased |
